Assays:
Conditions in all cases: 72 h
U2OS [1] = assay: relative viability EC50 (midpoint between 100% and the lowest measured viability); higher = less toxic
Vero E6 [2] = assay: as above
HepG2 [3] = assay: as above
Calu-3 [4] = assay: as above
Caco-2 [5] = assay: as above
U2OS [6] = assay: drug sensitivity score (DSS) for viability; higher = more toxic; extreme values may be limits of the assay
Vero E6 [7] = assay: as above
HepG2 [8] = assay: as above
Calu-3 [9] = assay: as above
Caco-2 [10] = assay: as above
U2OS [11] = assay: cell viability relative to DMSO; higher = less toxic
Vero E6 [12] = assay: as above
HepG2 [13] = assay: as above
Calu-3 [14] = assay: as above
Caco-2 [15] = assay: as above

Compound | relative viability EC50 (U2OS [1]) [µM] | relative viability EC50 (Vero E6 [2]) [µM] | relative viability EC50 (HepG2 [3]) [µM] | relative viability EC50 (Calu-3 [4]) [µM] | relative viability EC50 (Caco-2 [5]) [µM] | drug sensitivity score (U2OS [6]) | drug sensitivity score (Vero E6 [7]) | drug sensitivity score (HepG2 [8]) | drug sensitivity score (Calu-3 [9]) | drug sensitivity score (Caco-2 [10]) | cell viability (U2OS [11]; 1 nM) [%] | cell viability (U2OS [11]; 10 nM) [%] | cell viability (U2OS [11]; 100 nM) [%] | cell viability (U2OS [11]; 1000 nM) [%] | cell viability (U2OS [11]; 10000 nM) [%] | cell viability (Vero E6 [12]; 1 nM) [%] | cell viability (Vero E6 [12]; 10 nM) [%] | cell viability (Vero E6 [12]; 100 nM) [%] | cell viability (Vero E6 [12]; 1000 nM) [%] | cell viability (Vero E6 [12]; 10000 nM) [%] | cell viability (HepG2 [13]; 1 nM) [%] | cell viability (HepG2 [13]; 10 nM) [%] | cell viability (HepG2 [13]; 100 nM) [%] | cell viability (HepG2 [13]; 1000 nM) [%] | cell viability (HepG2 [13]; 10000 nM) [%] | cell viability (Calu-3 [14]; 1 nM) [%] | cell viability (Calu-3 [14]; 10 nM) [%] | cell viability (Calu-3 [14]; 100 nM) [%] | cell viability (Calu-3 [14]; 1000 nM) [%] | cell viability (Calu-3 [14]; 10000 nM) [%] | cell viability (Caco-2 [15]; 1 nM) [%] | cell viability (Caco-2 [15]; 10 nM) [%] | cell viability (Caco-2 [15]; 100 nM) [%] | cell viability (Caco-2 [15]; 1000 nM) [%] | cell viability (Caco-2 [15]; 10000 nM) [%]
Cc1ccc(C(=O)Nc2ccc(CN3CCN(C)CC3)c(C(F)(F)F)c2)cc1C#Cc1cnc2[nH]ncc2c1 [GZD824] | 0.42 | 0.365 | 0.297 | 0.497 | 1.17 | 15.4 | 16.6 | 17.2 | 13.9 | 10.1 | 99.5 | 104 | 77.5 | 32.5 | 0.3 | 103 | 102 | 86.5 | 19.1 | 0.2 | 106 | 98.8 | 71.2 | 27.1 | 0.4 | 96.7 | 86.8 | 76.8 | 45.9 | 3.7 | 102 | 98.6 | 86.7 | 59 | 2.4
CCCCC#Cc1nc(NC)c2ncn([C@@H]3O[C@H](CO)[C@@H](O)[C@H]3O)c2n1 [HEMADO] | > 10 | > 10 | > 10 | > 10 | > 10 | 0 | 0 | 0 | 0 | 0 | 102 | 102 | 96.1 | 103 | 101 | 110 | 101 | 105 | 105 | 98.5 | 111 | 103 | 99.7 | 103 | 104 | 102 | 108 | 84.6 | 102 | 91.1 | 103 | 89 | 102 | 104 | 102
O=C(CSc1nc2c(c(=O)n1-c1ccccc1)SCC2)Nc1ccc(-c2ccccc2)cn1 [IWP-L6] | > 10 | > 10 | > 10 | > 10 | > 10 | 0 | 0 | 0 | 0 | 0 | 95.4 | 97.6 | 93.4 | 97.1 | 94.9 | 97 | 97.7 | 95.3 | 95.1 | 96.1 | 100 | 92.1 | 105 | 106 | 99.3 | 94.4 | 96.6 | 91.7 | 98.8 | 87.5 | 89.2 | 102 | 96.2 | 92.6 | 90.1
COc1cc2c(cc1OC)[C@H](C)NCC2 [Isoquinoline,-6,7-dimethoxy-1-methyl-1,2,3,4-tetrahydro,] | > 10 | > 10 | > 10 | > 10 | > 10 | 0 | 0 | 0 | 0 | 0 | 102 | 103 | 104 | 90.4 | 102 | 97.3 | 96.5 | 96.8 | 96.5 | 106 | 100 | 95.6 | 99.9 | 97.4 | 101 | 109 | 104 | 101 | 109 | 96.1 | 92.5 | 89.1 | 99.4 | 92.3 | 112
Cc1cc(-c2ncc(CC(=O)Nc3ccc(-c4cnccn4)cn3)cc2C)ccn1 [LGK-974] | > 10 | > 10 | 2.77 | > 10 | > 10 | 0 | 0 | 3.7 | 0.8 | 1.8 | 97.4 | 96.8 | 92.7 | 93.4 | 91.4 | 93 | 96.6 | 90.7 | 93.4 | 107 | 95 | 99.7 | 97.9 | 96.9 | 39.6 | 93.6 | 97 | 84.2 | 90.3 | 87.8 | 97.1 | 96.6 | 89.2 | 91.2 | 75.2
Cc1c(C(=O)NCc2cccnc2)nn(-c2ccc(Cl)cc2Cl)c1-c1ccc(Cl)cc1 [MJ-15] | > 10 | > 10 | > 10 | > 10 | > 10 | 0 | 0 | 0 | 0 | 0 | 99.2 | 96.5 | 102 | 88.8 | 95.3 | 92.5 | 96.4 | 94.8 | 90.2 | 99.2 | 91.8 | 111 | 96.2 | 101 | 98.8 | 90.5 | 86.7 | 103 | 90.4 | 97 | 88 | 87.7 | 92.2 | 84.3 | 79.1
COc1ccc(C2CC(c3ccccc3)=NN2c2ccc(S(N)(=O)=O)cc2)cc1 (stereo not given) [ML141] | > 10 | > 10 | > 10 | > 10 | > 10 | 0 | 0 | 0 | 0 | 0.8 | 102 | 110 | 93.3 | 108 | 94 | 112 | 103 | 109 | 95.9 | 102 | 106 | 102 | 102 | 104 | 94.8 | 85.8 | 105 | 105 | 110 | 104 | 94.9 | 95.2 | 97.6 | 97.8 | 80.7
COCc1nc2c([nH]1)c(=O)n(C)c(=O)n2CC(C)C [MMPX] | > 10 | > 10 | > 10 | > 10 | > 10 | 0 | 0 | 0 | 0 | 0 | 95.8 | 100 | 96.4 | 104 | 98.2 | 97.8 | 94.2 | 99.2 | 97.5 | 99.2 | 98 | 94 | 101 | 94.9 | 100 | 102 | 100 | 98.1 | 103 | 96 | 91.8 | 91.8 | 96.9 | 95.7 | 96.3
CC[N+](C)(CC)CC(=O)Nc1c(C)cccc1C [N-methyllidocaine-iodide] | > 10 | > 10 | > 10 | > 10 | > 10 | 0 | 0 | 0 | 0 | 0 | 95.1 | 101 | 96.7 | 97.4 | 100 | 98.7 | 96.2 | 99.2 | 102 | 101 | 106 | 95.4 | 93.7 | 111 | 107 | 98.2 | 102 | 102 | 96.7 | 102 | 88 | 101 | 103 | 94.8 | 102
CC(C)CCNc1ncccc1C(=O)N1CCN(Cc2ccccc2)CC1 [NSI-189] | > 10 | > 10 | > 10 | > 10 | > 10 | 0 | 0 | 0 | 0 | 0 | 97.5 | 98 | 95.5 | 97.8 | 99.3 | 96.5 | 95.7 | 94.9 | 93.3 | 104 | 108 | 91.5 | 102 | 91.2 | 103 | 96.3 | 108 | 92.5 | 92.7 | 115 | 96.8 | 97.8 | 100 | 92.9 | 106
C=C(C)[C@@H]1CCC(C)=C[C@H]1c1c(OC)cc(C)cc1OC [O-1918] | > 10 | > 10 | > 10 | > 10 | > 10 | 0 | 0 | 0 | 0 | 0 | 102 | 106 | 97 | 101 | 99 | 106 | 102 | 106 | 99.5 | 102 | 101 | 94.9 | 104 | 95.3 | 95.9 | 102 | 97.5 | 96 | 91.6 | 95.9 | 96.4 | 105 | 100 | 98.5 | 105
Nc1ncnc2c1c(-c1cnc3[nH]ccc3c1)nn2C1CCCC1 [PP-121] | 0.933 | 1.43 | 1.05 | 0.355 | 0.596 | 11.6 | 8.9 | 10.2 | 14.2 | 12.1 | 104 | 98.5 | 97 | 48 | 1.6 | 99.5 | 104 | 102 | 73.7 | 9.3 | 121 | 106 | 104 | 58.3 | 11.4 | 98 | 100 | 85.7 | 33.4 | 15.3 | 105 | 100 | 90.5 | 43.6 | 13.1
CC(O)Cn1cnc2c1c(=O)n(C)c(=O)n2C (stereo not given) [Proxyphylline] | > 10 | > 10 | > 10 | > 10 | > 10 | 0 | 0 | 0 | 0 | 0 | 98.9 | 92.8 | 95.1 | 93.6 | 104 | 90.1 | 99.1 | 87 | 90.8 | 108 | 106 | 102 | 98.7 | 111 | 103 | 92.5 | 100 | 106 | 99.3 | 104 | 102 | 93.9 | 99.9 | 101 | 94.6
CCOC(=O)Nc1ccc(NCc2ccc(F)cc2)cc1N [Retigabine] | > 10 | > 10 | > 10 | > 10 | > 10 | 0 | 0 | 0 | 0 | 0 | 102 | 97.4 | 104 | 97 | 98 | 89.5 | 99.1 | 96.1 | 93.5 | 111 | 97.6 | 106 | 100 | 102 | 105 | 91.8 | 88.5 | 98.4 | 103 | 98.3 | 100 | 102 | 104 | 96.8 | 106

From the supplement of paper PMC13380429
